Laboratory results published in patent US9169205B2, “Pyrrolidine derivatives, pharmaceutical compositions and uses thereof” (Boehringer Ingelheim International GmbH, priority 2012, dated 2015).
pIC50: −log10 of the molar value.

Target: human ACC2 (Homo sapiens (Human), UniProt O00763)
Assay: ACC2 assay (spectrophotometric 384 well assay, NADH-linked kinetic method)
Type: biochemical
Conditions: hACC2 construct lacking 128 N-terminal amino acids, 25° C., 340 nm
Procedure: Spectrophotometric 384 Well Assay
Malonyl CoA formation by acetyl CoA carboxylases is stoichometrically linked to the consumption of ATP. ACC2 activity is measured in a NADH-linked kinetic method measuring ADP generated during the ACC reaction using a coupled lactate dehydrogenase/pyruvate kinase reaction.
The protein is then expressed in insect cells using a baculoviral expression system. Protein purification is performed by anion exchange.
All compounds are dissolved in dimethyl sulfoxide (DMSO) to a concentration of 10 mM.
The enzymatic reaction is then started by addition of a mixture of NADH, acetyl Coenzyme A (both 200 μM f.c.) and ATP (500 uM f.c.). The decrease of the optical density (slope S) is then determined at 25° C. at a wavelength of 340 nm over 15 minutes in a spectrophotometric reader.
Each assay microtiter plate contains wells with vehicle instead of compound as controls for the non-inhibited enzyme (100% CTL; ‘HIGH’) and wells without acetyl-CoA as controls for non-specific NADH degradation (0% CTL; ‘LOW’).

human ACC2, sequence (O00763 129-2458): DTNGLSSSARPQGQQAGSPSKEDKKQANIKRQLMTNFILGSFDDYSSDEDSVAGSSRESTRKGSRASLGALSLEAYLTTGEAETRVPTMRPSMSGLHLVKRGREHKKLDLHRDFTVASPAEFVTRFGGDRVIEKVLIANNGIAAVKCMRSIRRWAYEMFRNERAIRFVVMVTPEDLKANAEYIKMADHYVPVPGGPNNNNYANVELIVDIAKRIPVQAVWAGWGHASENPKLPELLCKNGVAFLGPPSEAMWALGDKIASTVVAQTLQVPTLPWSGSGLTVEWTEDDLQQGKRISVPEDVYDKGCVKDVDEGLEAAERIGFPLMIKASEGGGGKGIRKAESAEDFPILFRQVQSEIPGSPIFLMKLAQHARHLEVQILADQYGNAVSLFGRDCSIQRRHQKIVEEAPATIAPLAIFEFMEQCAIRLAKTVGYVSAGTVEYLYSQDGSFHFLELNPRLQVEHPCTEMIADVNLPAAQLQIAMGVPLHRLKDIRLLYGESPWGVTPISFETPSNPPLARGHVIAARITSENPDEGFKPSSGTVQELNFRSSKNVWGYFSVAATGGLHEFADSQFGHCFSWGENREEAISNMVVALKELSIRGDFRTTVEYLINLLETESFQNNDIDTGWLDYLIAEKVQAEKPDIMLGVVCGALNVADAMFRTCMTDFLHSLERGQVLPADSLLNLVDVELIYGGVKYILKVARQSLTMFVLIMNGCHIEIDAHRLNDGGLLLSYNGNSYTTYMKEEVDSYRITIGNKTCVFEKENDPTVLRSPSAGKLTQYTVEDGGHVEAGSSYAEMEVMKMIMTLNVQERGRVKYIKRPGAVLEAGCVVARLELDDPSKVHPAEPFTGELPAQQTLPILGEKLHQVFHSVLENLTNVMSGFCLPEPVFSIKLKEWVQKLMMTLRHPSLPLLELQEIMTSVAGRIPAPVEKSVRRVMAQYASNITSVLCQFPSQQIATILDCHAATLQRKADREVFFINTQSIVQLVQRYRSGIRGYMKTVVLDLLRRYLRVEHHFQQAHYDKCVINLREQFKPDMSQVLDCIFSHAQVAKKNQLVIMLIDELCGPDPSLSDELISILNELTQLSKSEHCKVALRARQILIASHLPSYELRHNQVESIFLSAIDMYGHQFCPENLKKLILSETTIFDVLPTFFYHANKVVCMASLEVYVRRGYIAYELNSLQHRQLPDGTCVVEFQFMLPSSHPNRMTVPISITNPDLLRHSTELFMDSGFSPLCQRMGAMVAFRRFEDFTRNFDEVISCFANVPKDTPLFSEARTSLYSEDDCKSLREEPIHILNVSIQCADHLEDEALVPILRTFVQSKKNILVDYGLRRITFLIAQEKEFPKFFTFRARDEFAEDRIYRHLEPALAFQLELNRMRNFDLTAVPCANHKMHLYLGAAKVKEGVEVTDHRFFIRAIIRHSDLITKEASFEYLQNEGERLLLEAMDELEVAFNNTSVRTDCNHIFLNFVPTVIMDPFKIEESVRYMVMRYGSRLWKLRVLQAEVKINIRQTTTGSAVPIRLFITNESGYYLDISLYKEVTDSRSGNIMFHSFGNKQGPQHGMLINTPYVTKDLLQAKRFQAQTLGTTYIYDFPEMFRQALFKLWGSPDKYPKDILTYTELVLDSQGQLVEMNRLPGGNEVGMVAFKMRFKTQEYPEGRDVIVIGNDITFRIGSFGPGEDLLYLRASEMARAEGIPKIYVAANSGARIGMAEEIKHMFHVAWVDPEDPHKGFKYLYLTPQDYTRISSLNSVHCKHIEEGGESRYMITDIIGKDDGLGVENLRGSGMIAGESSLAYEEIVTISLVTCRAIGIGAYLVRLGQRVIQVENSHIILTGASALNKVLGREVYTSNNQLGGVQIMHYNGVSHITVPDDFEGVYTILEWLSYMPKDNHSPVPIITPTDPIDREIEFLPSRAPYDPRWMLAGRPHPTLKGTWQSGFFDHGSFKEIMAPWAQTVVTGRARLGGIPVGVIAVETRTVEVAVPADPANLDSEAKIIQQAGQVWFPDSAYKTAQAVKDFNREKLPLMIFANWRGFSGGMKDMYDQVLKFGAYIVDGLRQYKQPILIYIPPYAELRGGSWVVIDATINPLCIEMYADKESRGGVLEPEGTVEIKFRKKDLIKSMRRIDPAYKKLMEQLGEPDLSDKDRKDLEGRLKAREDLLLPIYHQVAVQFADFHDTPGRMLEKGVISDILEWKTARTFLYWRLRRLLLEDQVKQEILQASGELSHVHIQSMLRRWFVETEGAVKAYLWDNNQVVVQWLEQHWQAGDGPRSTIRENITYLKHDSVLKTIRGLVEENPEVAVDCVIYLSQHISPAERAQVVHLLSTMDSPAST

SMILES	pIC50
CC(=O)N[C@@H](C)c1ccc(O[C@@H]2CCN(c3ccc(OCC4CC4)cc3)C2)cc1 [Example 1.1, N—((S)-1-(4-((R)-1-(4-(Cyclopropylmethoxy)phenyl)pyrrolidin-3-yloxy)phenyl)ethyl)-acetamide]	7.27
CCOc1ccc(N2CCC(Oc3ccc([C@H](C)NC(C)=O)cc3)C2)cc1 (some centres unmarked) [Example 1.2]	6.70
CCOc1ccc(N2CC[C@H](Oc3ccc([C@H](C)NC(C)=O)cc3)C2)cc1 [Example 1.3]	6.58
CCOc1cccc(N2CC[C@H](Oc3ccc([C@H](C)NC(C)=O)cc3)C2)c1 [Example 1.4]	6.29
CCOc1cccc(N2CC[C@@H](Oc3ccc([C@H](C)NC(C)=O)cc3)C2)c1 [Example 1.5]	6.69
CC(=O)N[C@@H](C)c1ccc(OC2CCN(c3ccc(OC4CC4)cc3)C2)cc1 (some centres unmarked) [Example 1.6]	6.97
CC(=O)N[C@@H](C)c1ccc(OC2CCN(c3ccc4c(c3)OCCO4)C2)cc1 (some centres unmarked) [Example 1.7]	6.64
CCCOc1ccc(N2CCC(Oc3ccc([C@H](C)NC(C)=O)cc3)C2)cc1 (some centres unmarked) [Example 1.8]	6.85
CCCOc1ccc(N2CCC(Oc3ccc([C@H](C)NC(C)=O)cc3)C2)c(OC)c1 (some centres unmarked) [Example 1.9]	5.94
CC(=O)N[C@@H](C)c1ccc(OC2CCN(c3ccc(OCC4CC4)cc3F)C2)cc1 (some centres unmarked) [Example 1.10]	6.64
CC(=O)N[C@@H](C)c1ccc(O[C@@H]2CCN(c3cccc(OCC4CC4)c3)C2)cc1 [Example 1.11]	6.65
CC(=O)N[C@@H](C)c1ccc(OC2CCN(c3ccc(Cl)cc3)C2)cc1 (some centres unmarked) [Example 1.12]	6.05
CCCOc1ccc(N2CCC(Oc3ccc([C@H](C)NC(C)=O)cc3)C2)c(C#N)c1 (some centres unmarked) [Example 1.13]	6.81
CC(=O)N[C@@H](C)c1ccc(OC2CCN(c3ccc(OC4CCC4)cc3)C2)cc1 (some centres unmarked) [Example 1.14]	7.44
CC(=O)N[C@@H](C)c1ccc(OC2CCN(c3ccc(OC(C)C)cc3)C2)cc1 (some centres unmarked) [Example 1.15]	6.67
CC(=O)N[C@@H](C)c1ccc(OC2CCN(c3ccc(OCC4CC4(F)F)cc3)C2)cc1 (some centres unmarked) [Example 1.16]	7.60
CC(=O)N[C@@H](C)c1ccc(OC2CCN(c3ccc(OCC4CCOC4)cc3)C2)cc1 (some centres unmarked) [Example 1.17]	6.05
CC(=O)N[C@@H](C)c1ccc(OC2CCN(c3ccc4c(c3)OCC(C)(C)CO4)C2)cc1 (some centres unmarked) [Example 1.18]	6.67
CCOc1ccc(N2CCC(Oc3ccc([C@H](C)NC(C)=O)cc3)C2)c(F)c1 (some centres unmarked) [Example 1.19]	6.62
CC(=O)N[C@@H](C)c1ccc(OC2CCN(c3cccc4c3OCCO4)C2)cc1 (some centres unmarked) [Example 1.20]	5.53
CC(=O)N[C@@H](C)c1ccc(OC2CCN(c3ccc(OCC4CCCO4)cc3)C2)cc1 (some centres unmarked) [Example 1.21]	6.24
COc1ccc(N2CCC(Oc3ccc([C@H](C)NC(C)=O)cc3)C2)c(F)c1 (some centres unmarked) [Example 1.22]	6.25
CC(=O)N[C@@H](C)c1ccc(OC2CCN(c3ccc4c(c3)OCCCO4)C2)cc1 (some centres unmarked) [Example 1.23]	7.08
COc1ccc(N2CCC(Oc3ccc([C@H](C)NC(C)=O)cc3)C2)cc1 (some centres unmarked) [Example 1.24]	6.23
CC(=O)N[C@@H](C)c1ccc(OC2CCN(c3ccc(OC4CC4)cc3C)C2)cc1 (some centres unmarked) [Example 1.25]	7.07

SMILES	pIC50
CC(=O)N[C@@H](C)c1ccc(OC2CCN(c3ccc4c(c3)CCO4)C2)cc1 (some centres unmarked) [Example 1.26]	6.40
CC(=O)N[C@@H](C)c1ccc(OC2CCN(c3cccc(C(F)(F)F)c3)C2)cc1 (some centres unmarked) [Example 1.27]	6.96
CC(=O)N[C@@H](C)c1ccc(OC2CCN(c3ccc(F)c(F)c3)C2)cc1 (some centres unmarked) [Example 1.28]	6.17
CCCOc1ccc(N2CCC(Oc3ccc([C@H](C)NC(C)=O)cc3)C2)c(Cl)c1 (some centres unmarked) [Example 1.29]	7.22
CC(=O)N[C@@H](C)c1ccc(OC2CCN(c3cc(C(F)(F)F)ccc3C)C2)cc1 (some centres unmarked) [Example 1.30]	6.76
CC(=O)N[C@@H](C)c1ccc(OC2CCN(c3cccc(F)c3C)C2)cc1 (some centres unmarked) [Example 1.31]	6.04
COc1ccc(N2CCC(Oc3ccc([C@H](C)NC(C)=O)cc3)C2)cc1C(F)(F)F (some centres unmarked) [Example 1.32]	6.27
CC(=O)N[C@@H](C)c1ccc(OC2CCN(c3ccc(C4CCC4)cc3)C2)cc1 (some centres unmarked) [Example 1.33]	6.90
CC(=O)N[C@@H](C)c1ccc(OC2CCN(c3ccc(F)c(C(F)(F)F)c3)C2)cc1 (some centres unmarked) [Example 1.34]	6.65
CC(=O)N[C@@H](C)c1ccc(OC2CCN(c3ccc(F)cc3F)C2)cc1 (some centres unmarked) [Example 1.35]	6.05
CC(=O)N[C@@H](C)c1ccc(OC2CCN(c3cc4c(cc3F)OCCCO4)C2)cc1 (some centres unmarked) [Example 1.36]	7.01
COCCCOc1ccc(N2CCC(Oc3ccc([C@H](C)NC(C)=O)cc3)C2)c(F)c1 (some centres unmarked) [Example 1.37]	6.32
COCCOc1ccc(N2CCC(Oc3ccc([C@H](C)NC(C)=O)cc3)C2)c(F)c1 (some centres unmarked) [Example 1.38]	6.16
CC(=O)N[C@@H](C)c1ccc(OC2CCN(c3ccc(C)cc3F)C2)cc1 (some centres unmarked) [Example 1.39]	6.10
CC(=O)N[C@@H](C)c1ccc(OC2CCN(c3ccc(OC4CC4)cc3F)C2)cc1 (some centres unmarked) [Example 1.40]	6.83
CC(=O)N[C@@H](C)c1ccc(OC2CCN(c3ccc(OCC4CC4(F)F)cc3F)C2)cc1 (some centres unmarked) [Example 1.41]	7.35
CC(=O)N[C@@H](C)c1ccc(OC2CCN(c3ccc(OC4CCOC4)cc3F)C2)cc1 (some centres unmarked) [Example 1.42]	6.23
COc1cc(OC2CC2)ccc1N1CCC(Oc2ccc([C@H](C)NC(C)=O)cc2)C1 (some centres unmarked) [Example 1.43]	6.56
CC(=O)N[C@@H](C)c1ccc(OC2CCN(c3ccccc3)C2)cc1 (some centres unmarked) [Example 1.44]	6.36
CO[C@H]1CN(c2ccc(OCC3CC3)cc2)CC1Oc1ccc([C@H](C)NC(C)=O)cc1 (some centres unmarked) [Example 1.45]	6.97
CC(=O)N[C@@H](C)c1ccc(OC2CCN(c3cc4c(cc3F)OCCO4)C2)cc1 (some centres unmarked) [Example 1.46]	6.65
CC(=O)N[C@@H](C)c1ccc(OC2CCN(c3ccc4c(c3F)OCCO4)C2)cc1 (some centres unmarked) [Example 1.47]	6.47
CC(=O)N[C@@H](C)c1ccc(O[C@H]2CCN(c3ccc(OCC4CC4)cc3)C2)cc1 [Example 1.48]	6.74
CC(=O)N[C@@H](C)c1ccc(O[C@H]2CCN(c3ccc(OC4CC4)cc3)C2)cc1 [Example 1.49]	6.11
CO[C@@H]1CN(c2ccc(OCC3CC3)cc2)CC1Oc1ccc([C@H](C)NC(C)=O)cc1 (some centres unmarked) [Example 1.51]	6.76

SMILES	pIC50
CC(=O)N[C@@H](C)c1ccc(OC2CCN(c3ccc(C)c(Cl)c3)C2)cc1 (some centres unmarked) [Example 1.52]	6.22
CC(=O)N[C@@H](C)c1ccc(OC2CCN(c3cccc(Cl)c3)C2)cc1 (some centres unmarked) [Example 1.53]	6.69
CC(=O)N[C@@H](C)c1ccc(OC2CCN(c3ccc(F)c(Cl)c3)C2)cc1 (some centres unmarked) [Example 1.54]	6.52
CC(=O)N[C@@H](C)c1ccc(OC2CCN(c3cccc(C)c3)C2)cc1 (some centres unmarked) [Example 1.55]	6.67
CC(=O)NC(C)c1ccc(OC2CCN(c3ccc(OCC4CC4)cc3)C2)nc1 (centres unmarked) [Example 1.56]	6.53
COc1cc(OCC2CC2(F)F)ccc1N1CCC(Oc2ccc([C@H](C)NC(C)=O)cc2)C1 (some centres unmarked) [Example 1.57]	6.35
CC(=O)N[C@@H](C)c1ccc(OC2CCN(c3cc(Cl)ccc3Cl)C2)cc1 (some centres unmarked) [Example 1.58]	6.45
CC(=O)N[C@@H](C)c1ccc(OC2CCN(c3cc(Cl)ccc3C)C2)cc1 (some centres unmarked) [Example 1.60]	6.38
CC(=O)N[C@@H](C)c1ccc(OC2CCN(c3cccc(OC(F)(F)F)c3)C2)cc1 (some centres unmarked) [Example 1.61]	6.07
CCOc1ccc(N2CCC(Oc3ccc([C@H](C)NC(C)=O)cc3)C2)c(F)c1F (some centres unmarked) [Example 1.62]	6.47
C[C@H](NC(=O)N(C)C)c1ccc(OC2CCN(c3ccc(OC4CC4)cc3)C2)cc1 (some centres unmarked) [Example 1.64]	6.97
CC(C)Oc1ccc(N2CCC(Oc3ccc([C@H](C)NC(=O)N(C)C)cc3)C2)cc1 (some centres unmarked) [Example 1.65]	6.06
CC(=O)N[C@@H](C)c1ccc(OC2CCN(c3ccc(Oc4ccncc4)cc3)C2)cc1 (some centres unmarked) [Example 1.66]	6.10
Cc1cc(OC2CC2)ccc1N1CCC(Oc2ccc([C@H](C)NC(=O)N(C)C)cc2)C1 (some centres unmarked) [Example 1.68]	6.25
CC(=O)N[C@@H](C)c1ccc(OC2CCN(c3ccc(Oc4cnccn4)cc3)C2)cc1 (some centres unmarked) [Example 1.69]	6.36
CC(=O)N[C@@H](C)c1ccc(OC2CCN(c3ccc(OCCCF)cc3)C2)cc1 (some centres unmarked) [Example 1.70]	7.28
CC(=O)N[C@@H](C)c1ccc(OC2CCN(c3ccc(OC4CCOC4)cc3)C2)cc1 (some centres unmarked) [Example 1.71]	6.57
CC(=O)N[C@@H](C)c1ccc(OC2CCN(c3ccc4c(c3F)OCO4)C2)cc1 (some centres unmarked) [Example 1.72]	6.25
CC(=O)N[C@@H](C)c1ccc(OC2CCN(c3ccc(OC4CC4)cc3C#N)C2)cc1 (some centres unmarked) [Example 1.73]	6.64
CCOC1CN(c2ccc(OCC3CC3)cc2)CC1Oc1ccc([C@H](C)NC(C)=O)cc1 (some centres unmarked) [Example 1.74]	5.78
CC(=O)N[C@@H](C)c1ccc(OC2CCN(c3ccc4c(c3)COC4)C2)cc1 (some centres unmarked) [Example 1.75]	6.15
COCCOC1CN(c2ccc(OCC3CC3)cc2)CC1Oc1ccc([C@H](C)NC(C)=O)cc1 (some centres unmarked) [Example 1.77]	6.13
CC(=O)N[C@@H](C)c1ccc(OC2CCN(c3ccc(OCC(F)(F)F)cc3)C2)cc1 (some centres unmarked) [Example 1.78]	6.26
CC(=O)N[C@@H](C)c1ccc(OC2CCN(c3ccc(OC(F)F)cc3)C2)cc1 (some centres unmarked) [Example 1.79]	6.30
